EP0313703A1, “Use of 24,25-dihydroxycholecalciferole in the treatment of urinary calculus” (KUREHA KAGAKU KOGYO KABUSHIKI KAISHA, priority 1987, dated 1989)

Key:
renal calculus = assay: Inhibition of formation of renal calculus in model rats (ethylene glycol + 1α-hydroxycholecarciferol); format: in vivo, Wistar rats; conditions: 10 µg/kg/1 ml/day p.o., four weeks
Experimental: As the test animals for renal calculus, the following rats were used.
Twenty male Wistar rats (age of 8 weeks and body weight of about 200 g) were allowed to take a water containing 0.5 % of ethylene glycol freely, and a mixture of 0.5 µg of 1α-hydroxycholecarciferol and 0.1 ml of triglyceride of a fatty acid of 8 to 10 carbon atoms was forcibly and orally administered by a stomach tube every other day for four weeks, thereafter being used as the test animals.
24R,25-(OH)₂-D₃ in the triglyceride of a fatty acid of 8 to 10 carbon atoms containing 2 % of ethanol was forcibly and orally administered to each of the test animals at a dose of 10µg/kg/1 ml/day by a stomach tube, and to each animals of the control group, the triglyceride of a fatty acid of 8 to 10 carbon atoms was administered in the same manner as above.
The animals were slaughtered after four weeks from the first administration, and the kidney of the animal was extirpated therefrom after the exsanguination and immediately photographed by soft X-ray. Furhter the cross section of the extirpated kidney containing papilla was observed by naked eyes.

male or female ICR mice = assay: 30-day repeated oral administration: body weight and histopathology; format: in vivo; conditions: 10, 100 or 1000 µg/kg daily p.o. for 30 days
Experimental: After dissolving 24R,25-(OH)₂-D₃, at a prescribed concentration, into the triglyceride of a fatty acid of 8 to 10 carbon atoms containing 1 % of ethanol, the solution was forcibly and orally administered to each of the three groups of the male or female ICR mice continuously for 30 days at a daily dose of 10, 100 or 1000 µg/kg.
The examined organs are as follows: brain, heart, lung, liver, kidney, adrenal, spleen, pancreas, thyroid, hypophysis, thymus, mesentric lymph node, testis, ovary, uterus, stomach, small intestines (jejunum, ileum and duodenum), large intestines (colon and cecum), eyeball, submandibular gland, urinary bladder, backskin, muscle, sternum, marrow of sternum, femur and marrow of femur.

[1] = Acute oral toxicity, single dose, 2 weeks observation; format: in vivo, mice; conditions: mouse, in vivo, po, male ICR mice; read-out: acute oral LD₅₀
Experimental: (§1) After dissolving the present substance in ethanol, the thus formed solution was diluted by a triglyceride of a fatty acid of 8 to 10 carbon atoms so that the concentration of ethanol became 2 %. The thus formed solution was orally (p.o.) administered to each of 10 male ICR mice (age of 6 weeks, body weight of 25±3 g) at dose of 150 mg/kg. […] Accordingly, the acute oral LD₅₀ of the present substance is not less than […] and the present substance can be said to be extremely safe.

male ICR mice = assay: as above; format: in vivo; conditions: 150 mg/kg p.o.
Experimental: as §1

Row | SMILES | calculi in the pelvis and the papilla of the kidney, observation by naked eyes (renal calculus; 10 rats, control group: 8 cases among 10 rats) | radial deposition of crystals in the renal parenchyma, observation by naked eyes (renal calculus; 10 rats, remarkably found in the control group) | formation of calculus, soft X-ray photograph of the kidney (renal calculus; compared with control rats) | body weight change (growth curve) (male or female ICR mice) | histopathological examination of organs (hematoxylin·eosin) (male or female ICR mice) | LD50 at 336 h [1] [mg/kg] | survival / toxic symptoms (male ICR mice; 10 male ICR mice, observed for 2 weeks) | biochemical examination of the blood, autopsy and histopathological examination versus control animals (male ICR mice; male ICR mice, after slaughter at 2 weeks)
1 | C=C1CC[C@H](O)C/C1=C/C=C1\CCC[C@]2(C)[C@@H]([C@H](C)CC[C@@H](O)C(C)(C)O)CC[C@@H]12 [24R,25-(OH)₂-D₃] | any clear calculus was never recognized | one rat of 10 rats | clear inhibition of the formation of calculus | any significant difference in the body weight change was not recognized | any abnormal findings were not particularly recognized |  |  | 
2 | C=C1CC[C@H](O)C/C1=C/C=C1\CCC[C@]2(C)[C@@H]([C@H](C)CCC(O)C(C)(C)O)CC[C@@H]12 (some centres unmarked) [the present substance, 24,25-dihydroxycholecalciferol] |  |  |  |  |  | ≥ 100 | all the animals (10 mice) survived without any abnormality | no difference was found
